Test results from patent publication US20100298376A1, “USE OF NOVEL NEUROPROTECTIVE 3-SUBSTITUTED INDOLONE COMPOSITIONS” (BOARD OF REGENTS, THE UNIVERSITY OF TEXAS SYSTEM, priority 2009, published 2010).
Values joined by “and” are separate entries in the source; they are usually repeats but may differ in a detail not shown here. Equal entries are not always repeated. Where two headings read alike, the source gives them in different places.

System: cerebellar granule neurons
Details: for % neuronal survival Mean ± SD: 24 hours, percent of HK control
Method: These compounds were analyzed for their neuroprotective activity in vitro. Granule neuron cultures were obtained from dissociated cerebella of 7-8 day old Wistar rats as known to one of ordinary skill in the art. Cells were plated in Basal Eagle's Medium with Earles salts (BME) supplemented with 10% fetal calf serum (FCS), 25 mM KCl, 2 mM glutamine (Invitrogen), and 100 μg/ml gentamycin on dishes (Nunc) coated with poly-L-lysine in 24-well dishes at a density 1×10^6 cells/well. Cytosine arabinofuranoside (10 μM) was added to the culture medium 18-22 hours after plating to prevent replication of non-neuronal cells that yields highly pure culture of granule neurons. The neuronal cultures were maintained for 7-8 days prior to treatments.
This experimental model of neuronal apoptosis has been used widely used to understand the molecular mechanisms underlying neurodegeneration and to identify biological and chemical agents with neuroprotective efficacy. For this, the cells were rinsed once and then maintained in low K^+ medium (serum-free BME medium, 5 mM KCl; referred to as LK), or in the case of control cultures, in high K^+ medium (serum-free BME medium, supplemented with 20 mM KCl; referred to as HK). Each compound was tested at three different concentrations of 1 μM, 5 μM, and 25 μM. The 25 μM concentration was included to evaluate neurotoxicity. For treatments, the chemical compounds (dissolved in dimethylsulfoxide) were added directly to LK medium at the time of the switch from HK at concentrations of 1 μM, 5 μM, or 25 μM. Viability was assessed 24 hours later. Each compound was tested in duplicate (at each of the concentrations) and the experiment repeated at least 3 times. Although all compounds were solubilized in dimethylsulfoxide (DMSO), the amount of DMSO in the cultures never exceeded 0.1% (v/v).
The viability status of neuronal cultures treated with HK, LK, or LK medium supplemented with various compounds was evaluated by phase contrast microscopy and quantified by staining cell nuclei with 4′,6′-diamidino2-phenylindole hydrochloride (DAPI). Briefly, the cells were fixed in 4% paraformaldehyde for 20 minutes at 4′C. After washing in phosphate buffered saline, DAPI (1 μg/ml in phosphate buffered saline) was added for 15 min at room-temperature and viewed under ultraviolet light (260 nm). Cells with condensed or fragmented nuclei were scored as dead. […] Statistical analysis was performed using an unpaired, two-tailed Student's t test, compared to mean neuronal survival of control cultures receiving LK treatment and the quantitative data are presented in Tables 1 and 2 for each compound.

[1] = LK medium, concentration not specified

Molecule | neuroprotective activity (in words) [1] | % neuronal survival Mean ± SD (Table 1, 1 μM in LK medium) | % neuronal survival Mean ± SD (Table 1, 5 μM in LK medium) | % neuronal survival Mean ± SD (Table 1, 25 μM in LK medium) [%] | % neuronal survival Mean ± SD (Table 2, 1 μM in LK medium) [%] | % neuronal survival Mean ± SD (Table 2, 5 μM in LK medium) [%] | % neuronal survival Mean ± SD (Table 2, 25 μM in LK medium) [%] | also measured
O=C1Nc2ccc(Cl)cc2/C1=C/c1cc(Br)cc(Br)c1 [Compound 8, (Z)-3-(3′,5′-Dibromobenzylidene)-5-chloroindolin-2-one] | substantially less effective | 77.7 ± 17.51% | 68.5 ± 11.86% | 64.4 ± 9.65 | – | – | – | –
CC(=O)c1ccc2c(c1)/C(=C/c1cc(Br)c(O)c(Br)c1)C(=O)N2 [Compound 34, (Z)-5-Acetyl-3-(3′,5′-dibromo-4′-hydroxybenzylidene)indolin-2-one] | superior to Compound 1 | 96.8% and 96.8 ± 6.15 % | 110.3% and 110.3 ± 8.50 % | 2.2 ± 1.63 | – | – | – | neuroprotective activity (in words) (at 1 μM and 5 μM (two lower concentrations)): impressive neuroprotection
Cc1ccc(/C=C2\C(=O)Nc3ccc([N+](=O)[O-])cc32)cc1 [Compound 28, (Z)-3-(4′-Methylbenzylidene)-5-nitroindolin-2-one] | – | 54.6 ± 7.48% | 60.0 ± 1.87% | 54.3 ± 0.49 | – | – | – | –
COc1cc(/C=C2\C(=O)Nc3ccccc32)cc(OC)c1OC [Compound 3, (Z)-3-(3′, 4′,5′-Trimethoxybenzylidene)indolin-2-one] | reduced activity | 50.8 ± 7.50% | 59.9 ± 7.98% | 61.3 ± 11.35 | – | – | – | neuroprotective activity (in words) (at all three concentrations): not protective
CC(=O)c1ccc2c(c1)/C(=C/c1ccc[nH]1)C(=O)N2 [Compound 38] | moderate protective activity | – | – | – | 69.5 ± 12.61 | 87.3 ± 22.50 | 87.1 ± 24.50 | –
CN(C)c1ccc(/C=C2\C(=O)Nc3ccc([N+](=O)[O-])cc32)cc1 [Compound 29, (Z)-3-(4′-(Dimethylamino)benzylidene)-5-nitroindolin-2-one] | – | 70.4 ± 9.37% | 67.6 ± 10.31% | 66.9 ± 9.86 | – | – | – | –
O=C1Nc2ccc(F)cc2/C1=C/c1ccc[nH]1 [Compound 40] | highest neuroprotective activity | – | – | – | 58.4 ± 3.98 | 65.7 ± 0.07 | 96.6 ± 1.91 | neuroprotective activity (in words) (at 25 μM / high doses): the most effective one
O=C1Nc2ccccc2/C1=C\c1c(Cl)cccc1Cl [Compound 5, (E)-3-(2′,6′-Dichlorobezylidene)indolin-2-one] | ineffective | 54.6 ± 10.27% | 52.9 ± 3.94% | 24.5 ± 12.38 | – | – | – | neurotoxicity (in words): toxic
Cc1ccc(/C=C2/C(=O)Nc3ccc(Cl)cc32)cc1 [Compound 13, (E)-5-Chloro-3-(4′-methybenzylidene)indolin-2-one] | – | 70.0 ± 17.50% | 70.6 ± 13.86% | 67.4 ± 17.40 | – | – | – | –
COc1cc(/C=C2\C(=O)Nc3ccc([N+](=O)[O-])cc32)cc(OC)c1OC [Compound 23, (Z)-3-(3′, 4′,5′-Trimethoxybenzylidene)-5-nitroindolin-2-one] | – | 76.6 ± 15.98% | 61.9 ± 5.87% | 69.0 ± 11.26 | – | – | – | –
O=C1Nc2ccc([N+](=O)[O-])cc2/C1=C/c1ccccc1 [Compound 25, (Z)-3-Benzylidene-5-nitroindolin-2-one] | – | 80.1 ± 18.01% | 78.4 ± 17.54% | 54.3 ± 3.63 | – | – | – | neuroprotective activity (in words) (at all three concentrations): moderately efficacious
O=C1Nc2ccccc2/C1=C/c1cccs1 [Compound 41, (Z)-3-(Thien-2′-ylmethylene)indolin-2-one] | – | – | – | – | 68.3 ± 13.16 | 77.1 ± 13.16 | 86.2 ± 4.03 | neuroprotective activity (in words) (at 25 μM / high doses): moderately active
O=C1Nc2ccc(F)cc2/C1=C\c1cc(Br)c(O)c(Br)c1 [Compound 30, (E)-3-(3′,5′-Dibromo-4′-hydroxybenzylidene)-5-fluoro-indolin-2-one] | not effective | 49.3 ± 10.34% | 69.6 ± 8.96% | 18.1 ± 11.00 | – | – | – | neurotoxicity (in words): toxic
(Z)-5-Bromo-3-(thien-2′-ylmethylene)indolin-2-one [Compound 43] | – | – | – | – | 56.8 ± 5.62 | 58.3 ± 9.82 | 66.4 ± 4.56 | –
O=C1Nc2ccccc2/C1=C/c1ccccc1[N+](=O)[O-] [Compound 6] | – | 75.8 ± 3.20 % | 76.6 ± 7.14% | 81.5 ± 13.72 | – | – | – | –
O=C1Nc2ccc(Cl)cc2/C1=C\c1ccccc1 [Compound 12, (E)-3-Benzylidene-5-chloroindolin-2-one] | not effective | 58.6 ± 3.27% | 63.8 ± 8.63% | 41.1 ± 21.41 | – | – | – | –
O=C1Nc2ccc([N+](=O)[O-])cc2/C1=C/c1ccc[nH]1 [Compound 39] | – | – | – | – | 84.4 ± 3.41 | 90.1 ± 6.55 | 87.9 ± 1.40 | –
O=C1Nc2ccc(Cl)cc2/C1=C\c1c(Cl)cccc1Cl [Compound 11, (E)-5-Chloro-3-(2′,6′-dichlorobenzylidene)indolin-2-one] | – | 56.4 ± 14.41% | 63.8 ± 3.46% | 45.7 ± 24.05 | – | – | – | –
COc1cc(/C=C2\C(=O)Nc3ccc(Br)cc32)cc(OC)c1OC [Compound 18, (Z)-5-Bromo-3-(3′, 4′,5′-trimethoxybenzylidene)indolin-2-one] | not effective | 50.8 ± 7.67% | 59.9 ± 12.94% | 61.3 ± 1.20 | – | – | – | –
O=C1Nc2ccc(F)cc2/C1=C/c1cccs1 [Compound 44, (Z)-5-Fluoro-3-(thien-2′-ylmethylene)indolin-2-one] | low protection | – | – | – | 53.6 ± 14.24 | 60.1 ± 10.28 | 68.7 ± 9.35 | –
O=C1Nc2ccc([N+](=O)[O-])cc2/C1=C\c1c(Cl)cccc1Cl [Compound 24, (E)-3-(2′,6′-Dichlorobenzylidene)-5-nitroindolin-2-one] | – | 76.4 ± 9.84 % | 69.9 ± 11.25% | 70.7 ± 8.50 | – | – | – | –
O=C1Nc2ccccc2/C1=C\c1ccco1 [Compound 45, (E)-3-(Furan-2′-ylmethylene)indoline-2-one] | excellent activity | – | – | – | 70.4 ± 8.35 | 82.8 ± 5.22 | 90.2 ± 3.91 | –
O=C1Nc2ccc(F)cc2/C1=C\c1ccccc1 [Compound 33, (E)-3-Benzylidene-5-fluoroindolin-2-one] | not effective | 53.4 ± 2.12% | 51.9 ± 15.56% | 31.5 ± 17.51 | – | – | – | –
COc1cc(/C=C2\C(=O)Nc3ccc(Cl)cc32)cc(OC)c1OC [Compound 10, (Z)-5-Chloro-3-(3′, 4′,5′-trimethoxybenzylidene)indolin-2-one] | – | 81.1 ± 9.81 % | 71.0 ± 7.26 % | 57.1 ± 10.13 | – | – | – | –
CN(C)c1ccc(/C=C2/C(=O)Nc3ccc(Cl)cc32)cc1 [Compound 15, (E)-5-Chloro-3-(4′-(dimethylamino)benzylidene)indolin-2-one] | – | 51.8 ± 15.66% | 55.8 ± 16.94% | 79.7 ± 4.69 | – | – | – | –
O=C1Nc2ccc(Cl)cc2/C1=C/c1ccc[nH]1 [Compound 36] | moderate protective activity | – | – | – | 71.2 ± 0.02 | 84.0 ± 16.97 | 82.6 ± 10.18 | –
